Drawing on article PMC11445722, “Synthesis, Characterization, and Biological Evaluation of Novel [M(η^6-arene)2]^+ (M = Re, ^99mTc) Hosted Terpyridines and Copper Complexes Thereof” (Inorganic Chemistry, 2024), this text covers IC50 for three compounds.

In general, IC50 refers to the point on the concentration scale where inhibition reaches its midpoint.

Type in all cases: cell-based
For assay [1], the system named is HT29 (human colon adenocarcinoma). In words: Cell viability (resazurin) assay, 2D model, HT29. The settings on record: 48 h incubation, three independent experiments, read-out: IC50 ± SEM, HT29. A general note: Alamar Blue is a resazurin reagent that responds to reducing activity.
Description: (§1) First, the cytotoxic activity of the compounds was investigated in different cancerous and noncancerous cell lines, namely, HT29 (human colon adenocarcinoma), A549 (human lung adenocarcinoma), and RPE-1 (human retinal epithelium). Cisplatin was used as a positive control. Cells were first incubated for 48 h with the complexes before cell viability was measured with a colorimetric resazurin assay.
(§2) Ce ll Culture: T he RPE-1 c ell l ine wa s cul ture d in DME M /F12 med iu m (G ibco) . T h e HT29 c ell line was
culture d in McCoy me dium (Gibco).
(§3) All ce ll line s were co mple me nted wit h 10% o f fetal calf ser um ( Gibco) and 100 U.mL-1 penicillin-
(§4) streptomycin mixture (Gibco) and maintained in a humidiﬁed atmosphere at 37 °C and 5% CO2.
(§5) Cell Viability Assay using a 2D Cellular Model: The cytotoxicity of the compounds was assessed by a
(§6) ﬂuorometric ce ll viability assay using Resazurin (Acros Organics) . Brieﬂy, ce l ls were s ee de d in tri pl ic ate
(§7) in 96-well plates at a 4×10^3 cells/well density in 100 μL Gibco McCoy’s 5A (1X) + GlutaMAX (Modiﬁed
(§8) Medium) with 10 % FBS and 1% Penicillin/Streptomycin. AŌer 24 h, cells were treated with increasing
(§9) concentraƟons of the compo unds and cisplaƟn. DiluƟons for the compounds were prepared f rom 10
(§10) mM stock in DMSO which were diluted to 100 - 0,01 μM with medium. AŌer 48 h of incubaƟon, the
(§11) medium was removed and 100 μL of complete medium containing resazurin (0.2 mg.mL-1 ﬁnal
(§12) concentraƟon) was adde d. AŌer 4 h of incubaƟon at 37 °C, the ﬂuoresc ence signal of the resoruﬁn
(§13) values were then calculated using the GraphPad Prism soŌware.
The subject of assay [2] is RPE-1 (human retinal epithelium). Description: Cell viability (resazurin) assay, 2D model, RPE-1. The conditions noted are these: 48 h incubation, noncancerous cell line, three independent experiments, read-out: IC50 ± SEM, RPE-1.
Description: as §1, §2
culture d in McCoy me dium (Gibco).
as §3, §4, §5, §6, §7, §8, §9, §10, §11, §12, §13
Assay [3] has as its system A549 (human lung adenocarcinoma). In words: Cell viability (resazurin) assay, 2D model, A549. The conditions noted are these: 48 h incubation, three independent experiments, read-out: IC50 ± SEM, A549.
Description: as §1, §2
culture d in McCoy me dium (Gibco).
as §3, §4, §5, §6, §7, §8, §9, §10, §11, §12, §13

The structures appear in SMILES notation.

Take `N.N.[Cl][Pt][Cl]` [cisplatin]: the IC50 in assay [1] worked out at 7.84 ± 0.57 µM; in assay [2], 22.6 ± 2.74 µM; in assay [3], 10.9 ± 0.17 µM.
Turning to `N.[O]=[Re](=[O])(=[O])[OH]` [(NH4)[ReO4]], the IC50 in assay [1], in assay [2] and in assay [3] was greater than 100 µM each time.
Consider `[Cl][Cu][Cl]` [CuCl2], for which the IC50 in assay [1], in assay [2] and in assay [3] was greater than 100 µM throughout.
